Data taken from ChEMBL document CHEMBL3991949, “Inhibition of DCPS” (2009).
Values belong to the molecule of their own block, whether it stands above or below them. Active and inactive are the calls of the source. The rule behind the calls is not given here.

Assays:
m7GpppX diphosphatase [1] = biological target: T1, m7GpppX diphosphatase (Mus musculus, UniProt Q9DAR7); assay: Inhibition of DcpS in human SMN2 promoter driven mouse NSC-34 cells assessed as increase in SMN2 mRNA expression after 18 hrs by RT-PCR analysis
T1 sequence (Q9DAR7 whole entry): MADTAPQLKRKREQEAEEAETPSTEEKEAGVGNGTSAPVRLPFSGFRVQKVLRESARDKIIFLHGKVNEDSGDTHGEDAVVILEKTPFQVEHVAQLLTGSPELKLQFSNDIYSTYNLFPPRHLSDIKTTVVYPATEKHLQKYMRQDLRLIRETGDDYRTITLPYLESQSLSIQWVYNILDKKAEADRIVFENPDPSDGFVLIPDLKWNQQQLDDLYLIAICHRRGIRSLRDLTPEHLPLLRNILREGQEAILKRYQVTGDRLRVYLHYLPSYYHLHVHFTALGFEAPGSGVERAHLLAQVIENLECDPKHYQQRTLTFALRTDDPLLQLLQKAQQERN

m7GpppX diphosphatase [2] = biological target: T2, m7GpppX diphosphatase (Homo sapiens, UniProt Q96C86); assay: Inhibition of recombinant flag-tagged DcpS (unknown origin) decapping activity assessed as reduction in hydrolysis of m7GpppG to m7G using unlabeled cap structure as substrate after 30 secs by PEI cellulose thin-layer chromatographic assay
T2 sequence (Q96C86 whole entry): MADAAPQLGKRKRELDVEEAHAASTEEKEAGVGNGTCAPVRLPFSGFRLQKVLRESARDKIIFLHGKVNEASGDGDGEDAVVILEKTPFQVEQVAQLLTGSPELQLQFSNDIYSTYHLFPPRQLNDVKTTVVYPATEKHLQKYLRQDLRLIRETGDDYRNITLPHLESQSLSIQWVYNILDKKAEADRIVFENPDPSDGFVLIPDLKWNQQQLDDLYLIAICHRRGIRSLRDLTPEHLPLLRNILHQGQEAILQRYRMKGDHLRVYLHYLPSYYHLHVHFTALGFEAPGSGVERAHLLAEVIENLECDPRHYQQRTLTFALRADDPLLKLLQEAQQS

Mus musculus [3] = assay: Increase in life span of SMNdelta7 SMA mouse model at 3 mg/kg/day administered orally beginning at PND04, continued for duration of their lives by Kaplan-Meier plot method relative to untreated control; assay type: functional
Brain [4] = assay: Drug level in fetal brain extracts isolated from timed-pregnant SMNdelta7 carrier mouse prenatal dams administered orally beginning at embryonic day 11.5 for 5 days by LC-MS-MS analysis; assay type: ADME, tissue-based; settings: in vivo, po, 120 h
Brain [5] = assay: Drug uptake in brain of SMNdelta7 carrier mouse […] at 0.1 to 30 mg/kg/day administered orally beginning at PND04 for 5 days; assay type: ADME, organism-based; settings: in vivo, po, 120 h
Mus musculus [6] = assay: Effect on life span of SMNdelta7 SMA mouse model assessed as survival at 3 mg/kg/day administered orally on onset of motor neuron loss at PND09, continued for duration of their lives by Kaplan-Meier plot method (reference value: 14 +/- 0.4 day); assay type: functional
Mus musculus [7] = assay: Increase in life span of timed-pregnant SMNdelta7 carrier mouse prenatal dams at 3 mg/kg/day administered orally beginning at embryonic day 11.5 continued through birth and once the pups were born; assay type: functional
Mus musculus [8] = assay: Increase in SMN protein levels in spinal cord extracts isolated from SMNdelta7 SMA mouse model at 3 mg/kg/day administered orally beginning at PND04 for 5 days by immunoblot analysis relative to SMNdelta7 carrier mouse; assay type: functional
Mus musculus [9] = assay: Induction in delay of onset of body mass loss in timed-pregnant SMNdelta7 carrier mouse prenatal dams at 3 mg/kg/day administered orally only during prenatal period; assay type: functional
Mus musculus [10] = assay: Induction in delay of onset of body mass loss in timed-pregnant SMNdelta7 carrier mouse prenatal dams at 3 mg/kg/day administered orally beginning at embryonic day 11.5 continued through birth and once the pups were born; assay type: functional
Mus musculus [11] = assay: Toxicity in SMNdelta7 carrier mouse assessed as adverse events at 0.1 to 30 mg/kg/day administered orally beginning at PND04 for 5 days; assay type: organism-based; settings: in vivo, po, 120 h
Mus musculus [12] = assay: Increase in life span of timed-pregnant SMNdelta7 carrier mouse prenatal dams at 3 mg/kg/day administered orally beginning at embryonic day 11.5 continued after birth (reference value: 13.3 +/- 0.6 day); assay type: functional
Mus musculus [13] = assay: Induction in delay of onset of body mass loss in SMNdelta7 SMA mouse model at 3 mg/kg/day administered orally beginning at PND04, continued for duration of their lives by Kaplan-Meier plot method (reference value: 11.1 +/- 0.3 day); assay type: functional
Mus musculus [14] = assay: Increase in Smn promoter activity in spinal cord extracts isolated from Smn knockout mouse containing LacZ:NeoR cassette inserted into mouse Smn exon 2A assessed as optimal effective dose administered orally beginning at PND04 for 5 days by beta-galactosidase light chemiluminescent reporter gene assay; assay type: functional
Mus musculus [15] = assay: Increase in SMN protein levels in spinal cord extracts isolated from SMNdelta7 SMA mouse model at 3 mg/kg/day administered orally beginning at PND04 for 5 days by immunoblot analysis; assay type: functional
Mus musculus [16] = assay: Increase in Smn promoter activity in forebrain extracts isolated from Smn knockout mouse containing LacZ:NeoR cassette inserted into mouse Smn exon 2A assessed as optimal effective dose administered orally beginning at PND04 for 5 days by beta-galactosidase light chemiluminescent reporter gene assay; assay type: functional
[17] = biological target: T3, m7GpppX diphosphatase (Homo sapiens) (UniProt Q96C86); assay: Inhibition of recombinant flag-tagged DcpS (unknown origin) decapping activity assessed as hydrolysis of m7GpppG to m7G at 8 nM using unlabeled cap structure as substrate after 30 secs by PEI cellulose thin-layer chromatographic assay (reference value: 62%); design: scale not given: the % may be the effect or the level left
T3 sequence (whole entry): T2 sequence (Q96C86 whole entry)

[18] = biological target: T3, m7GpppX diphosphatase (Homo sapiens); assay: Inhibition of recombinant flag-tagged DcpS (unknown origin) decapping activity assessed as hydrolysis of m7GpppG to m7G at 1.6 nM using unlabeled cap structure as substrate after 30 secs by PEI cellulose thin-layer chromatographic assay (reference value: 62%); design: scale not given: the % may be the effect or the level left
[19] = biological target: T3, m7GpppX diphosphatase (Homo sapiens); assay: Inhibition of recombinant flag-tagged DcpS (unknown origin) decapping activity assessed as hydrolysis of m7GpppG to m7G at 200 nM using unlabeled cap structure as substrate after 30 secs by PEI cellulose thin-layer chromatographic assay (reference value: 62%); design: scale not given: the % may be the effect or the level left
[20] = biological target: T3, m7GpppX diphosphatase (Homo sapiens); assay: Inhibition of recombinant flag-tagged DcpS (unknown origin) decapping activity assessed as hydrolysis of m7GpppG to m7G at 40 nM using unlabeled cap structure as substrate after 30 secs by PEI cellulose thin-layer chromatographic assay (reference value: 62%); design: scale not given: the % may be the effect or the level left
m7GpppX diphosphatase [21] = biological target: T1, m7GpppX diphosphatase; assay: Inhibition of DcpS in human SMN2 promoter driven mouse NSC-34 cell lysate assessed as increase in SMN2 expression after 18 hrs by beta-lactamase reporter gene assay
[22] = biological target: T3, m7GpppX diphosphatase (Homo sapiens); assay: Binding affinity to recombinant human N-terminal GST-tagged DcpS expressed in baculovirus-infected Sf9 insect cells at 100 nM after 90 mins in presence of [125I]-streptavidin by microarray assay; settings: tested as the 125I-labelled form

Compound: Nc1nc(N)c2c(OCC3CCN(CC(F)(F)F)CC3)cccc2n1
- EC50 (m7GpppX diphosphatase [1]): 223 nM

Compound: CC(=O)Nc1nc(CN2CCC(COc3cccc4nc(N)nc(N)c34)CC2)cs1
- EC50 (m7GpppX diphosphatase [1]): 2540 nM

Compound: Nc1nc(N)c2c(OCC3CCN(Cc4ccccc4F)CC3)cccc2n1
- Activity (Mus musculus [3]): 21%
- Drug uptake (Brain [4]): Dose-dependent effect
- Drug uptake (Brain [5]): Dose-dependent effect
- Survival (Mus musculus [6]): 14.9 days
- Activity (Mus musculus [7]): 30%
- Activity (Mus musculus [8]): 25%
- Activity (Mus musculus [9]): 10%
- Activity (Mus musculus [10]): 15%
- Activity (Mus musculus [11]): Non-Toxic
- Activity (Mus musculus [12]): 14.1 days
- Activity (Mus musculus [13]): 12 days
- Activity (Mus musculus [14]): 3 mg/kg/day
- Activity (Mus musculus [15]): 70%
- Activity (Mus musculus [16]): 3 mg/kg/day

Compound: Nc1nc(N)c2c(OCC3CCN(C(=O)c4cccc(I)c4)CC3)cccc2n1
- EC50 (m7GpppX diphosphatase [21]): 36 nM
- Activity [22]: Active

Compound: Cn1ccnc1CN1CCC(COc2cccc3nc(N)nc(N)c23)CC1
- EC50 (m7GpppX diphosphatase [1]): 108 nM

Compound: Nc1nc(N)c2c(OCC3CCN(c4ccccc4Cl)CC3)cccc2n1
- EC50 (m7GpppX diphosphatase [1]): 795 nM

Continued, values first:

- IC50 (m7GpppX diphosphatase [2]): 30 nM
Compound: C[n+]1cn([C@@H]2O[C@H](COP(=O)(O)OP(=O)([O-])OP(=O)(O)OC[C@H]3O[C@@H](n4cnc5c(=O)[nH]c(N)nc54)[C@H](O)[C@@H]3O)[C@@H](O)[C@H]2O)c2nc(N)[nH]c(=O)c21

- Activity [17]: 46%
- Activity [18]: 55%
- Activity [19]: 7%
- Activity [20]: 24%
Compound: C[n+]1cn([C@@H]2O[C@H](COP(=O)(O)OP(=O)([O-])OP(=O)(O)OC[C@H]3O[C@@H](n4cnc5c(=O)[nH]c(N)nc54)[C@H](O)[C@@H]3O)[C@@H](O)[C@H]2O)c2nc(N)nc(O)c21

- EC50 (m7GpppX diphosphatase [1]): 921 nM
Compound: Nc1nc(N)c2c(OCC3CCN(CC4CCNCC4)CC3)cccc2n1
